From PubChem BioAssay (NCI)
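Five compound concentrations were applied to cells in 96-well plates for 48 hours; endpoints were derived by simple linear interpolation of the resulting dose-response curve. GI50 = concentration required for 50% inhibition of growth. Definition used: TGI = concentration required for complete inhibition of growth.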

Legend:
Experiment in all cases: NCI tumour cell line growth inhibition, 48 h
TK-10 renal = test system: TK-10 renal
OVCAR-3 ovarian = test system: OVCAR-3 ovarian
786-0 renal = test system: 786-0 renal
IGROV1 ovarian = test system: IGROV1 ovarian
K-562 leukemia = test system: K-562 leukemia
EKVX NSCLC = test system: EKVX NSCLC
HL-60(TB) leukemia = test system: HL-60(TB) leukemia
SN12C renal = test system: SN12C renal
T-47D breast = test system: T-47D breast
HCT-15 colon = test system: HCT-15 colon

Row | SMILES | GI50 (TK-10 renal) [µM] | TGI (TK-10 renal) [µM] | GI50 (OVCAR-3 ovarian) [µM] | TGI (OVCAR-3 ovarian) [µM] | GI50 (786-0 renal) [µM] | TGI (786-0 renal) [µM] | GI50 (IGROV1 ovarian) [µM] | TGI (IGROV1 ovarian) [µM] | GI50 (K-562 leukemia) [µM] | TGI (K-562 leukemia) [µM] | GI50 (EKVX NSCLC) [µM] | TGI (EKVX NSCLC) [µM] | GI50 (HL-60(TB) leukemia) [µM] | TGI (HL-60(TB) leukemia) [µM] | GI50 (SN12C renal) [µM] | TGI (SN12C renal) [µM] | GI50 (T-47D breast) [µM] | TGI (T-47D breast) [µM] | GI50 (HCT-15 colon) [µM] | TGI (HCT-15 colon) [µM]
1 | COc1cc2cc(Oc3ccc(NC(=O)c4ccc(Cl)c(Cl)c4)cc3)c(C)nc2cc1OC | 9.81 | > 100 | 9.34 | > 100 | > 100 | > 100 | > 100 | > 100 | 7.23 | > 100 | 6.8 | > 100 | > 100 | > 100 | > 100 | > 100 | 3.28 | > 100 | 7.94 | > 100
2 | Nc1nc(N)c(CCCCc2ccccc2)c(N)n1 |  | > 100 |  | > 100 |  | > 100 |  | > 100 |  | > 100 |  | > 100 |  | > 100 |  | > 100 |  | > 100 |  | > 100
3 | O=C1C(OCCOc2ccccc2)=C(OCCOc2ccccc2)C(=O)c2ccccc21 | > 100 | > 100 | 6.5 | > 100 | 34.6 | > 100 | > 100 | > 100 | > 100 | > 100 | > 100 | > 100 | > 100 | > 100 | 4.38 | 52 | > 100 | > 100 | 3.14 | > 100
4 | COc1cc2c(cc1F)C(c1ccccc1Cl)=Nc1c(n[nH]c1C)N2 | 4.02 | 18.3 | 0.597 | 21.6 | 1.82 | 19.3 | 1.54 | 18 | 0.493 | > 50.4 | 2.84 | 18.4 | 0.838 | 20.8 | 1.38 | 18.3 | 1.59 | 26.4 | 0.705 | 19.7
5 | Oc1cc(-n2cccn2)c(O)cc1-n1cccn1 |  | 49.6 |  | 40 |  | 31.3 |  | > 75.9 |  | 39.3 |  | > 83.3 |  | 15.6 |  | 37.8 |  | 56.3 |  | 51.6
6 | FC(F)(F)c1cccc(-c2nn3ncccc3c2-c2ccnc(Nc3ccc4c(c3)OCCO4)n2)c1 | 8.49 | > 25 | 13.7 | > 25 | 8.35 | > 25 | 5.38 | > 22.2 | 8.75 | > 25 | 13.9 | > 25 | 11.9 | > 25 | 11.7 | > 25 | 7.37 | > 25 | 6.59 | > 25
7 | CN=C1OC2(c3ccccc3)C3=C(OC(=NC)N2C)C(=O)OC3(c2ccccc2)N1C (stereo not given) |  | > 100 |  | > 100 |  | > 100 |  | > 100 |  | > 100 |  | > 100 |  | > 100 |  | > 100 |  | > 100 |  | > 100
